Laboratory results reported in patent publication US20050197350A1, “Novel quinoline, tetrahydroquinazoline, and pyrimidine derivatives and methods of treatment related to the use thereof” (TAISHO PHARMACEUTICAL CO., LTD., priority 2003, published 2005).

Each compound was assayed on MCH receptors (assay: MCH receptor activity class (method not given)). Conditions: not given.

class	Structure (SMILES)
1	Cc1cc(N(C)C)nc(N[C@H]2CC[C@@H](NC(=O)c3ccc(Cl)cc3)CC2)n1 [Example 2566, 4-chloro-N-(cis-4-{[4-(dimethylamino)-6-methylpyrimidin-2-yl]amino}cyclohexyl)benzamide]

Same assay, conditions: MCH receptor activity class 1-3 (percent of control at 10^-7 M or IC50)

Structure (SMILES)	class
CN(C)c1ccnc(N[C@H]2CC[C@@H](CNC(=O)Nc3ccc(F)cc3)CC2)n1 [compound 2410, N-[(cis-4-{[4-(dimethylamino)pyrimidin-2-yl]amino}cyclohexyl)methyl]-N′-(4-fluorophenyl)urea]	2 (Class 2: The value of percent of control at 10^−7 M was from 40% to 60% or the value of IC′50 was from 50 nM to 200 nM.)

Same assay, conditions: MCH receptor; class by percent of control at 10^-7 M or IC50

Structure (SMILES)	class
CCCCCC(=O)NC[C@H]1CC[C@@H](Nc2cc(N(C)C)c3ccccc3n2)CC1 [compound 167]	3 (Class 3 The value of percent of control at 10^−7 M was more than 60% or the value of IC50 was more than 200 nM.)
CN(C)c1cc(N[C@H]2CC[C@@H](NC(=O)c3cc(C(C)(C)C)nn3Cc3ccc(Cl)cc3Cl)CC2)nc2ccccc12 [compound 142]	3 (Class 3 The value of percent of control at 10^−7 M was more than 60% or the value of IC50 was more than 200 nM.)
CN(C)c1nc(N[C@H]2CC[C@@H](NC(=S)Nc3cccc([N+](=O)[O-])c3)CC2)nc2c1CCCC2 [compound 1952]	3 (Class 3 The value of percent of control at 10^−7 M was more than 60% or the value of IC50 was more than 200 nM.)
CN(C)c1nc(N[C@H]2CC[C@@H](NC(=O)Nc3ccc4c(c3)CCC4)CC2)nc2c1CCCC2 [compound 1903]	3 (Class 3 The value of percent of control at 10^−7 M was more than 60% or the value of IC50 was more than 200 nM.)
CN(C)c1nc(N[C@H]2CC[C@@H](NC(=S)Nc3ccccc3OC(F)(F)F)CC2)nc2c1CCCC2 [compound 1968]	3 (Class 3 The value of percent of control at 10^−7 M was more than 60% or the value of IC50 was more than 200 nM.)
COc1ccc(CNC(=S)N[C@H]2CC[C@@H](Nc3nc4c(c(N(C)C)n3)CCCC4)CC2)cc1OC [compound 2041]	3 (Class 3 The value of percent of control at 10^−7 M was more than 60% or the value of IC50 was more than 200 nM.)
CN(C)c1cc(N[C@H]2CC[C@@H](NC(=O)CCc3ccccc3)CC2)nc2ccccc12 [compound 127]	3 (Class 3 The value of percent of control at 10^−7 M was more than 60% or the value of IC50 was more than 200 nM.)

Same assay, conditions: activity class 1-3: percent of control at 10^-7 M or IC50

Structure (SMILES)	class
CCc1cccc(C(C)C)c1NC(=O)N[C@H]1CC[C@@H](Nc2nc3c(c(N(C)C)n2)CCCC3)CC1 [compound 1676]	2 (Class 2: The value of percent of control at 10^−7 M was from 40% to 60% or the value of IC′50 was from 50 nM to 200 nM.)
CN(C)c1cc(N[C@H]2CC[C@@H](NC(=O)Oc3cccc(C(F)(F)F)c3)CC2)nc2ccccc12 [compound 1542]	3 (Class 3 The value of percent of control at 10^−7 M was more than 60% or the value of IC50 was more than 200 nM.)
COC(=O)NC[C@H]1CC[C@@H](Nc2cc(N(C)C)c3ccccc3n2)CC1 [compound 1575]	3 (Class 3 The value of percent of control at 10^−7 M was more than 60% or the value of IC50 was more than 200 nM.)
Cc1cc(C)c(CCNC[C@H]2CC[C@@H](Nc3nccc(N(C)C)n3)CC2)c(C)c1 [compound 1527]	3 (Class 3 The value of percent of control at 10^−7 M was more than 60% or the value of IC50 was more than 200 nM.)
COC(=O)N[C@H]1CC[C@@H](Nc2nc3c(c(N(C)C)n2)CCCC3)CC1 [compound 1595]	3 (Class 3 The value of percent of control at 10^−7 M was more than 60% or the value of IC50 was more than 200 nM.)
CN(C)c1ccnc(N[C@H]2CC[C@@H](NC(=O)Oc3ccccc3)CC2)n1 [compound 1632]	3 (Class 3 The value of percent of control at 10^−7 M was more than 60% or the value of IC50 was more than 200 nM.)
CN(C)c1nc(N[C@H]2CC[C@@H](NC(=O)NC(c3ccccc3)c3ccccc3)CC2)nc2c1CCCC2 [compound 1689]	1 (Class 1: The value of percent of control at 10^−7 M was less than 40% or the value of IC50 was less than 50 nM.)

Same assay, conditions: activity class per percent of control at 10^-7 M or IC50

Structure (SMILES)	class
COc1ccc(CSC2(CC(=O)N[C@H]3CC[C@@H](Nc4nc5c(c(N(C)C)n4)CCCC5)CC3)CCCCC2)cc1 [compound 989]	3 (Class 3 The value of percent of control at 10^−7 M was more than 60% or the value of IC50 was more than 200 nM.)
CN(C)c1cc(N[C@H]2CC[C@@H](NCc3cncc(-c4ccc(F)cc4)c3)CC2)nc2ccccc12 [compound 1114]	3 (Class 3 The value of percent of control at 10^−7 M was more than 60% or the value of IC50 was more than 200 nM.)
CN(C)c1cc(N[C@H]2CC[C@@H](NCc3c[nH]c4ccc(Br)cc34)CC2)nc2ccccc12 [compound 1093]	3 (Class 3 The value of percent of control at 10^−7 M was more than 60% or the value of IC50 was more than 200 nM.)

Same assay, conditions: class 1-3 by percent of control at 10^-7 M or IC50

Structure (SMILES)	class
CN(C)c1nc(N[C@H]2CC[C@@H](NC(=O)c3cccc4ccccc34)CC2)nc2c1CCCC2 [compound 545]	3 (Class 3 The value of percent of control at 10^−7 M was more than 60% or the value of IC50 was more than 200 nM.)

Same assay, conditions: class by percent of control at 10^-7 M or IC50

Structure (SMILES)	class
COc1cc(CN[C@H]2CC[C@@H](Nc3nc4c(c(N(C)C)n3)CCCC4)CC2)ccc1O [compound 1362]	3 (Class 3 The value of percent of control at 10^−7 M was more than 60% or the value of IC50 was more than 200 nM.)
Cc1ccc(Oc2ncccc2C(=O)N[C@H]2CC[C@@H](Nc3nccc(N(C)C)n3)CC2)cc1 [compound 355, N-(cis-4-{[4-(dimethylamino)pyrimidin-2-yl]amino}cyclohexyl)-2-(4-methylphenoxy)nicotinamide]	1 (Class 1: The value of percent of control at 10^−7 M was less than 40% or the value of IC50 was less than 50 nM.)
CCOC(=O)c1[nH]c2cc(Cl)cc(Cl)c2c1CN[C@H]1CC[C@@H](Nc2nccc(N(C)C)n2)CC1 [compound 1236]	1 (Class 1: The value of percent of control at 10^−7 M was less than 40% or the value of IC50 was less than 50 nM.)
CN(C)c1ccnc(N[C@H]2CC[C@@H](NC(=O)c3ccc(-c4ccc(Cl)cc4[N+](=O)[O-])o3)CC2)n1 [compound 815, 5-(4-chloro-2-nitrophenyl)-N-(cis-4-{[4-(dimethylamino)pyrimidin-2-yl]amino}cyclohexyl)-2-furamide]	1 (Class 1: The value of percent of control at 10^−7 M was less than 40% or the value of IC50 was less than 50 nM.)
COc1ccc(NC(=O)N[C@H]2CC[C@@H](Nc3nccc(N(C)C)n3)CC2)c(OC)c1 [compound 2231]	3 (Class 3 The value of percent of control at 10^−7 M was more than 60% or the value of IC50 was more than 200 nM.)
CN(C)c1nc(N[C@H]2CC[C@@H](NC(=O)Cc3ccc(Cl)c(Cl)c3)CC2)nc2c1CCCC2 [compound 975]	1 (Class 1: The value of percent of control at 10^−7 M was less than 40% or the value of IC50 was less than 50 nM.)
CN(C)c1nc(N[C@H]2CC[C@@H](NC(=O)Nc3cccc([N+](=O)[O-])c3)CC2)nc2c1CCCC2 [compound 1874]	3 (Class 3 The value of percent of control at 10^−7 M was more than 60% or the value of IC50 was more than 200 nM.)
CN(C)c1cc(N[C@H]2CC[C@@H](NC(=O)c3ccc(Br)s3)CC2)nc2ccccc12 [compound 673]	2 (Class 2: The value of percent of control at 10^−7 M was from 40% to 60% or the value of IC′50 was from 50 nM to 200 nM.)
Cc1cc(CNC[C@H]2CC[C@@H](Nc3cc(N(C)C)c4ccccc4n3)CC2)ccc1O [compound 1194]	3 (Class 3 The value of percent of control at 10^−7 M was more than 60% or the value of IC50 was more than 200 nM.)
CN(C)c1nc(N[C@H]2CC[C@@H](NC(=O)Nc3ccc(F)cc3[N+](=O)[O-])CC2)nc2c1CCCC2 [compound 1889]	3 (Class 3 The value of percent of control at 10^−7 M was more than 60% or the value of IC50 was more than 200 nM.)
CC(C)c1ccccc1NC(=S)N[C@H]1CC[C@@H](Nc2nc3c(c(N(C)C)n2)CCCC3)CC1 [compound 1761]	3 (Class 3 The value of percent of control at 10^−7 M was more than 60% or the value of IC50 was more than 200 nM.)
COc1cc(C(=O)N[C@H]2CC[C@@H](Nc3nccc(N(C)C)n3)CC2)ccc1[N+](=O)[O-] [compound 829, N-(cis-4-{[4-(dimethylamino)pyrimidin-2-yl]amino}cyclohexyl)-3-methoxy-4-nitrobenzamide]	1 (Class 1: The value of percent of control at 10^−7 M was less than 40% or the value of IC50 was less than 50 nM.)
COc1ccc(C)cc1NC(=S)N[C@H]1CC[C@@H](Nc2cc(N(C)C)c3ccccc3n2)CC1 [compound 2270]	3 (Class 3 The value of percent of control at 10^−7 M was more than 60% or the value of IC50 was more than 200 nM.)
COC(=O)[C@H](Cc1ccccc1)NC(=O)N[C@H]1CC[C@@H](Nc2nccc(N(C)C)n2)CC1 (relative stereo) [compound 2225]	3 (Class 3 The value of percent of control at 10^−7 M was more than 60% or the value of IC50 was more than 200 nM.)
CCOc1cc(OCC)c(OCC)cc1CNC[C@H]1CC[C@@H](Nc2nccc(N(C)C)n2)CC1 [compound 1295]	1 (Class 1: The value of percent of control at 10^−7 M was less than 40% or the value of IC50 was less than 50 nM.)

Same assay, conditions: class by percent of control at 10^−7 M or IC50

Structure (SMILES)	class
Cc1cnc(N[C@H]2CC[C@@H](CNC(=O)c3cc(Cl)cc(Cl)c3)CC2)nc1N(C)C [compound 2706, 3,5-dichloro-N-[(cis-4-{[4-(dimethylamino)-5-methylpyrimidin-2-yl]amino}cyclohexyl)methyl]benzamide]	1 (Class 1: The value of percent of control at 10^−7 M was less than 40% or the value of IC50 was less than 50 nM.)
Cc1cnc(N[C@H]2CC[C@@H](CNC(=O)c3ccc(C(F)(F)F)cc3)CC2)nc1N(C)C [compound 2698]	3 (Class 3 The value of percent of control at 10^−7 M was more than 60% or the value of IC50 was more than 200 nM.)
Cc1cc(N(C)C)nc(N[C@H]2CC[C@@H](NC(=O)c3ccc(Br)o3)CC2)n1 [compound 2979, 5-bromo-N-(cis-4-{[4-(dimethylamino)-6-methylpyrimidin-2-yl]amino}cyclohexyl)-2-furamide]	1 (Class 1: The value of percent of control at 10^−7 M was less than 40% or the value of IC50 was less than 50 nM.)
